Measured values reported in patent publication US20210228590A1, “TREATING INFLUENZA USING SUBSTITUTED POLYCYCLIC PYRIDONE DERIVATIVES AND PRODRUGS THEREOF” (priority 2018, published 2021).

Columns and labels:
[1] = tested on: influenza A virus A/PR/8/34; assay: Mouse model for delayed treatment, lethal infection: survival and body weight; assay type: in vivo, BALB/c mice
[2] = tested on: influenza A virus A/PR/8/34; assay: Mouse model for delayed treatment: virus titers in lungs; assay type: in vivo, BALB/c mice; conditions: for virus in lungs: days 8 and 10 post infection, treatment from 72 hours, limit of detection 1.50 log10 TCID50/ml
[3] = rat, in vivo, po
[4] = in vivo

With CCOC(=O)C1=C[C@@H](OC(CC)CC)[C@H](NC(C)=O)[C@@H](N)C1 [OSP, Oseltamivir phosphate, reference compound] the “survival time versus vehicle-treated group” value ([1]; OSP 5 mg/kg twice daily for 5 days from 24 or 48 hours post infection) was “survived for a significant longer period than the vehicle-treated group”, the “protection level (survival)” value ([1]; OSP 5 mg/kg twice daily for 5 days from 72 or 96 hours post infection) was “protection level was decreased” and the “body weight loss versus control group” value ([1]; OSP from 24 and 48 hours post infection) was “Significant inhibitions in body weight loss”. For the same compound, the “body weight loss versus vehicle-treated group” value ([1]; OSP from 72 and 96 hours post infection) was “body weight loss comparable to the vehicle-treated group”, the “virus titers in lung versus vehicle-treated group” value ([2]; OSP 5 mg/kg from 72 hours post infection, day 4 post infection) was “Significant reduction in virus titers” and the virus in lungs [2] was “No virus was detected”.

For COC(=O)OCOc1c2n(ccc1=O)N([C@@H]1c3ccccc3SCc3c1ccc(F)c3F)[C@@H]1COCCN1C2=O [II-6, baloxavir marboxil], the survival ([1]; BXM 15 mg/kg orally twice daily for 5 days from 24, 48, or 72 hours post infection, observed to day 28) was “all mice treated with 1.5 and 15 mg/kg of BXM survived”, the “survival time versus vehicle-treated group” value ([1]; BXM from 24, 48, 72, and 96 hours post infection, P<0.01 or P<0.001) was “Significant differences in survival time” and the “body weight change versus vehicle-treated group” value ([1]; BXM from 24, 48, 72, or 96 hours post infection) was “significantly less reduction of body weight compared with the vehicle-treated group”. For the same compound, the “body weight loss versus OSP-treated group” value ([1]; BXM from 24, 48, 72 or 96 hour post infection, on indicated days) was “significantly less body weight loss than did the OSP-treated group”, the “survival time versus OSP-treated group” value ([1]; BXM given from 72 and 96 hours post infection, OSP 5 mg/kg) was “significantly prolonged compared with that in OSP-treated group” and the “virus titers in lung versus vehicle-treated group” value ([2]; BXM 1.5 and 15 mg/kg for 5 days from 72 hours post infection, days 4 and 6 post infection) was “significantly reduced compared with those in the vehicle-treated group”. For the same compound, the “virus titer in lung versus OSP-treated group” value ([2]; BXM 1.5 and 15 mg/kg from 72 hours post infection, days 4 and 6 post infection) was “significantly lower than that in the group treated with 5 mg/kg of OSP”, the virus in lungs [2] was “No virus was detected” and the “concentration of Compound II-6 in plasma samples” value [3] was “a determination limit or less”.

For O=C1c2c(O)c(=O)ccn2N([C@@H]2c3ccccc3SCc3c2ccc(F)c3F)[C@@H]2COCCN12 [III-2, baloxavir acid], the “BA(%)” value [4] was 4.2%.

In the case of CC(=O)Oc1c2n(ccc1=O)N([C@@H]1c3ccccc3SCc3c1ccc(F)c3F)[C@@H]1COCCN1C2=O [II-4], the “BA(%)” value [4] is reported as 20.0%.
